The values below are quoted from earlier work in patent US20230159896A1, “MULTI-LINEAGE CARDIOVASCULAR MICROFLUIDIC ORGAN-CHIP” (CEDARS-SINAI MEDICAL CENTER, priority 2020, published 2023).

What is called Cmax is the highest concentration seen after dosing.

The conditions of series [1]: clinical, at common dose; for Cmax: read-out: Molar Cmax.
The conditions of series [2]: for Cardiovascular side effects: patients.
The subject of series [3] is patient-specific hiPSC-CMs.
The test system of a further series is zebrafish. Particulars: zebrafish model.
Another series has as its system PI3K/Akt. The conditions noted are these: hiPSC-CMs, previous study.

“Also recorded” adds a separate entry of the source.

Consider `CNC(=O)c1ccccc1Sc1ccc2c(/C=C/c3ccccn3)n[nH]c2c1` [axitinib], for which, in series [1], the “Peak plasma concentration (Cmax)” value is 12.6 ng/mL and the Cmax was 900 nM.
For the molecule `COc1cc2ncnc(Nc3ccc(F)c(Cl)c3)c2cc1OCCCN1CCOCC1` [gefitinib], the Cardiovascular side effects entry in series [2] is “typically does not exhibit cardiotoxic side effects”.
For `COc1cc2nccc(Oc3ccc(NC(=O)NC4CC4)c(Cl)c3)c2cc1C(N)=O` [lenvatinib], in series [1], the “Peak plasma concentration (Cmax)” value is recorded as 660 ng/mL and the Cmax was 1540 nM.
As to `Cc1ccc(Nc2nccc(N(C)c3ccc4c(C)n(C)nc4c3)n2)cc1S(N)(=O)=O` [pazopanib], in series [1], the “Peak plasma concentration (Cmax)” value is 1960 ng/mL and the Cmax is 3650 nM. Besides, in series [2], the Cardiovascular side effects entry is “may cause heart failure or vascular toxicity”.
Consider `Cc1ccc(C(=O)Nc2ccc(CN3CCN(C)CC3)c(C(F)(F)F)c2)cc1C#Cc1cnc2cccnn12` [ponatinib], for which the “Cytotoxicity on hiPSC-CMs relative to other TKIs” value in series [3] (previous hiPSC-CM study) is “most cytotoxic of all TKIs studied”. In series [1], the highest concentration (Cmax) was 140 nM. Besides, the “FDA black box warning” value in series [2] (human, in vivo) is “arterial occlusions and venous thromboembolisms as well as hepatotoxicity”. Further, the Cardiovascular side effects result in series [2] is reported as “severe vascular toxicity”.
For `CNC(=O)c1cc(Oc2ccc(NC(=O)Nc3ccc(Cl)c(C(F)(F)F)c3)c(F)c2)ccn1` [regorafenib], in series [1], the “Peak plasma concentration (Cmax)” value was 2500 ng/mL and the Cmax was 8080 nM.
On to `CNC(=O)c1cc(Oc2ccc(NC(=O)Nc3ccc(Cl)c(C(F)(F)F)c3)cc2)ccn1` [sorafenib], for which the Survival entry in the series with zebrafish is reported as “decrease survival”. Besides, in series [2], the Cardiovascular side effects entry is “cause hypertension, ischemia, and cardiac side-effects; also recorded: may cause heart failure or vascular toxicity”.
Consider `CCN(CC)CCNC(=O)c1c(C)[nH]c(/C=C2\C(=O)Nc3ccc(F)cc32)c1C` [sunitinib], for which, in the series with zebrafish, the Survival entry is reported as “decrease survival”. Moreover, in series [1], the “Peak plasma concentration (Cmax)” value is listed as 81.9 ng/mL and the Cmax is 1200 nM. For the same molecule, the Cardiovascular side effects entry in series [2] was “cause hypertension, ischemia, and cardiac side-effects; also recorded: may cause heart failure or vascular toxicity”.
`COc1cc2c(Nc3ccc(Br)cc3F)ncnc2cc1OCC1CCN(C)CC1` [vandetanib]: the hiPSC-CM contractile function result in series [3] (clinically-relevant concentrations, TKIs with FDA black-box warnings) was “contractile dysfunction”. Further, the “Peak plasma concentration (Cmax)” value in series [1] was 960 ng/mL.
As for insulin: Akt pathway activator, the “Effect of co-treatment on TKI-induced CM toxicity” value in series [3] (co-treatment with Akt pathway activators) is listed as “reversed TKI-induced CM toxicity”. For the same molecule, in the series with PI3K/Akt, the PI3K/Akt phosphorylation result was “significantly enhanced”.
